# In patent US11505556B2, “Halogenated derivatives of morphinans and uses thereof” (Xalud Therapeutics, Inc., priority 2017, dated 2022):
# “And” between values parts separate entries of the source, which are not always exact repeats. Identical values can stand only once. Like-named read-outs stand apart in the source and are kept apart here.
# Tests used:
# [1] = Hepatocyte elimination of parent compound, spread across species; type: in vitro ADME; conditions: mouse, rat, dog, monkey, human, hepatocytes; lowest to highest species value; read-out: range of hepatocyte elimination half-life values across species
# Method: Hepatocyte Elimination: (+)-NTX, AK-17 and XT-203 were incubated with cultured hepatocytes from the species listed in FIG. 9 and Table 4, and samples of the culture supernatant were collected over time. Samples were concentrated by nitrogen drying followed by reconstitution with 40% methanol for LC/MS analysis The data points were analyzed using the WinNonLin pharmacokinetics software package, and a half-life was determined that describes the rate of parent elimination. […].
# (§1) In addition to the animal studies presented above in Examples 1-9, the results of in vitro testing of several of the compounds (i.e., XT-203, XT-204, and XT-206 through XT-217) are shown in Table 5 and Table 6. […]. Nine additional compounds had two or fewer off-target hits in the screening. […] These compounds spanned all of the tested N-modification classes. […]. Thus, the medicinal chemistry approach taken in this series of fluorinated compounds can yield low off-target activity and longer metabolic lifetime while preserving TLR4 antagonism. It is appreciated that further development of compounds in this class, using techniques known to those skilled in the art, may yield additional compounds with desirable pharmacologic and toxicologic characteristics.
# iNOS = iNOS (Homo sapiens, UniProt P35228); experiment: iNOS enzyme inhibition; type: biochemical
# iNOS, sequence (P35228 whole entry): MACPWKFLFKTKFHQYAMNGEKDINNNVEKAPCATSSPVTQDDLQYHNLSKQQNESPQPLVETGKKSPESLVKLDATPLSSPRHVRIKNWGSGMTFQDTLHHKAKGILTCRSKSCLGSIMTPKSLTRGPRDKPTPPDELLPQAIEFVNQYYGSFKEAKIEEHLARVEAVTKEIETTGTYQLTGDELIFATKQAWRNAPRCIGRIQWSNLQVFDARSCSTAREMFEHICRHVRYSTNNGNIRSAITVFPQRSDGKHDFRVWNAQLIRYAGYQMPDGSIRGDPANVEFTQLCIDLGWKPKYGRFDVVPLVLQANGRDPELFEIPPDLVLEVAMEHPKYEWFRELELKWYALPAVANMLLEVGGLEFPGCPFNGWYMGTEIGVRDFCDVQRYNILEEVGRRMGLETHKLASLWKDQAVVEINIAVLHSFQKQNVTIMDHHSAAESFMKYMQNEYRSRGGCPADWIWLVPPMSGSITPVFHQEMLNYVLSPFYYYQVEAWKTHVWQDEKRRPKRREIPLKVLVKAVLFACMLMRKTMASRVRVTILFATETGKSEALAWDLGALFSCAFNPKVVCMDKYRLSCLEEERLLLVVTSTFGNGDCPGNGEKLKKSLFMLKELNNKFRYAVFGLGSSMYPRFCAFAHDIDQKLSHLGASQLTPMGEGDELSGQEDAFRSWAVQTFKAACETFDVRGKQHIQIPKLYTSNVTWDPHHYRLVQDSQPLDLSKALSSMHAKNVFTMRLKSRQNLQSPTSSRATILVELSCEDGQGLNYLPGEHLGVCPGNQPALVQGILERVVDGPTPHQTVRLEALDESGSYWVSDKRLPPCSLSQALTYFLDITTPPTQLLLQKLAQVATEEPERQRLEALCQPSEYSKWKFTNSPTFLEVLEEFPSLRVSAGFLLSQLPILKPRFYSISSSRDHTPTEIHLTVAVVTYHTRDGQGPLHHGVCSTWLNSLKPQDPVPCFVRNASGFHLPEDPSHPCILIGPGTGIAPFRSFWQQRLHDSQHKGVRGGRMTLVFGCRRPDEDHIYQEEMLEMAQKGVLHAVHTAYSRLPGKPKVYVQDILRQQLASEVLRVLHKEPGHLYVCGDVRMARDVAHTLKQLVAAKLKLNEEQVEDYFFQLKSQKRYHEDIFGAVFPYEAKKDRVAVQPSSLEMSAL
# in vitro [2] = conditions: mouse, hepatocytes
# [3] = system: TLR4 (LPS-stimulated NO production, BV-2 mouse microglia cell line); experiment: NO assay: inhibition of LPS-induced NO production in BV-2 microglia (iNOS cellular); type: cell-based; conditions: Mus musculus
# Excerpt: NO assay: Microglia are the resident cells of the innate immune system in the central nervous system, and TLR4 is primarily expressed by microglia rather than astrocytes or neurons in the CNS. Given this expression profile, the BV-2 mouse microglia cell line was used as the model system of microglia, as these cells recapitulate many of the responses of primary microglia with high fidelity. TLR4 activation induces the downstream production of the inflammatory factor NO, which contributes to the development of neuropathic pain and drug addiction. BV-2 murine microglia were grown in supplemented DMEM (including 10% FBS, 50 unit mL^−1 penicillin, 50 μg·mL^−1 streptomycin). BV-2 cells were detached from the flask by trypsin digestion when ˜80% confluence was reached. Cells were seeded at a density of 4×10^4 cells per well in 96-well plates. After overnight incubation, media was aspirated and changed to DMEM media without FBS. Cells were then treated with LPS (200 ng/ml) and different concentrations of the testing compounds. After 24 h treatment, 100 μL of supernatant media was removed after cells were treated for 24 h and added to flat black 96-well microfluor plates (Thermo Scientific, MA, USA). Subsequently, 10 μL of 2, 3-diaminonaphthalene (0.05 mg·mL^−1 in 0.62 M HCl) was added to each well and incubated for 15 min. The reaction was quenched by addition of 5 μL of 3 M NaOH and the plate was read on a Beckman Coulter DTX880 reader (Fullerton, Calif., USA) with excitation at 360 nm and emission at 430 nm.
# N chain NTX: This experimentation involved an in vitro assay where mouse BV2 cells were treated with LPS, which results in the release of nitric oxide (NO). Blockade of TLR4 activity results in reduced NO production. Therefore, IC50 values were determined for test compounds that antagonize TLR4 activity. A series of test compounds were prepared, with different N-alkyl chains replacing the cyclopropyl methyl found in naltrexone. Cell viability was also measured by a standard assay, e.g., measurement of the release of cytoplasm-resident enzymes in the tissue culture supernatant or media to detect cell loss/lysis/rupture. A dose-inhibition curve was generated by testing the TLR4 antagonist compound for the ability to block LPS-stimulated iNOs induction. In FIG. 7, the inhibition levels across a range of doses are graphed, along with a regression curve. The IC50 value—50% inhibition level—is also provided, graphed against the length of the alkyl chain. Note that with longer N-alkyl chain the IC50 was reduced, although cell viability became problematic.
# FIGS. 8B to 8D show the results of the inhibition of NO production from LPS-stimulated BV2 cells using the assay described above.
# Human hepatocytes = experiment: Hepatocyte elimination of parent compound; conditions: cultured hepatocytes
# in vitro [4] = conditions: rat, cultured hepatocytes
# hERG = hERG (Homo sapiens, UniProt Q12809); experiment: hERG inhibition
# hERG, sequence (Q12809 whole entry): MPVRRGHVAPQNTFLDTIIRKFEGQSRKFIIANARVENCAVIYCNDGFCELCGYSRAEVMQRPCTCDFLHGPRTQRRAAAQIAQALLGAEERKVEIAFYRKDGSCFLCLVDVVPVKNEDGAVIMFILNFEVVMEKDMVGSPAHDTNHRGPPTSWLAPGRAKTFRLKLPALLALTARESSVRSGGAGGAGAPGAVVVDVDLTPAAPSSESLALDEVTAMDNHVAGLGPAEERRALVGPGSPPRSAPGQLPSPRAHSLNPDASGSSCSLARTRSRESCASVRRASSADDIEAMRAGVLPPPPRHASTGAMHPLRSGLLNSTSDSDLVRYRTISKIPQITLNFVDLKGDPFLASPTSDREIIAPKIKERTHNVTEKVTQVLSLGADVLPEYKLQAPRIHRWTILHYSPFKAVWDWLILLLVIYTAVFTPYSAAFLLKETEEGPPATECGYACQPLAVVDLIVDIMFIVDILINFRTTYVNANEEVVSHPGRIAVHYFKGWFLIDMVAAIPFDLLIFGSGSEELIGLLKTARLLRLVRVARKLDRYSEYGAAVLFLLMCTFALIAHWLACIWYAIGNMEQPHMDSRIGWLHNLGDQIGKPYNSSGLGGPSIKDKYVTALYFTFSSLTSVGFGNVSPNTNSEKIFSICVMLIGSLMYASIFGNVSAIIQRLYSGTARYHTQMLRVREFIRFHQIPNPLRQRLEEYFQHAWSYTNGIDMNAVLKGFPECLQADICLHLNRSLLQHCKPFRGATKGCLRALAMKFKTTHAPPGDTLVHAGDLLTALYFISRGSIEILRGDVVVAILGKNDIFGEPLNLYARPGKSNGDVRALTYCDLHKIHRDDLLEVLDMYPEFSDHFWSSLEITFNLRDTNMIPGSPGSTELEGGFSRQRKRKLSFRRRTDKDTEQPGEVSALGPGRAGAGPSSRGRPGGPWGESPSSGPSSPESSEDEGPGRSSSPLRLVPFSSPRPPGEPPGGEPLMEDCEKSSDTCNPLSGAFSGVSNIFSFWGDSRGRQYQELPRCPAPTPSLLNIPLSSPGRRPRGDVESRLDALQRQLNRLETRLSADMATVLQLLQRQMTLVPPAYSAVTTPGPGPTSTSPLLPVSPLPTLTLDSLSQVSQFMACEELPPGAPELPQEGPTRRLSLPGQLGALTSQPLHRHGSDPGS
# [5] = system: off-target screening panel; experiment: Off-target inhibition screening (whole panel); conditions: 10 μM test concentration; hit = inhibition at or above the 50% level
# Excerpt: as §1
# in vitro [6] = conditions: dog, cultured hepatocytes
# in vitro [7] = conditions: human, cultured hepatocytes
# [8] = biological target: Protein tyrosine kinase LCK (Homo sapiens, UniProt P06239); experiment: Off-target screening; type: biochemical
# Excerpt: as §1
# in vitro [9] = conditions: monkey, cultured hepatocytes
# Vasopressin V1A = Vasopressin V1A (Homo sapiens, UniProt P37288); experiment: Off-target screening; type: binding
# Vasopressin V1A, sequence (P37288 whole entry): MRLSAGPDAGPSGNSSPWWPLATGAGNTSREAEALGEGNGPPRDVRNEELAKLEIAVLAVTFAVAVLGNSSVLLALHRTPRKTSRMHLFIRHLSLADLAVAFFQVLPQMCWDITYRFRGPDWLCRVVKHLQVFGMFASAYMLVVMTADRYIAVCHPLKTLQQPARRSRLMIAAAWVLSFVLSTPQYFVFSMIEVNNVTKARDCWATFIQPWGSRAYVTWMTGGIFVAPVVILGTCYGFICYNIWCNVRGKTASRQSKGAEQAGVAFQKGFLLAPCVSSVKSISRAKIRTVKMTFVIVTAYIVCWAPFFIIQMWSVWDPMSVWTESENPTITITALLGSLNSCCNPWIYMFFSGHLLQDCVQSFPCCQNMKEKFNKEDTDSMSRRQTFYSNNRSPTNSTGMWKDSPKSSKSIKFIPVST
# Excerpt: as §1
# Adenosine A2A = Adenosine A2A (Homo sapiens, UniProt P29274); experiment: Off-target screening; type: binding
# Excerpt: as §1
# Cannabinoid CB1 = Cannabinoid CB1 (Homo sapiens, UniProt P21554); experiment: Off-target screening; type: binding
# Cannabinoid CB1, sequence (P21554 whole entry): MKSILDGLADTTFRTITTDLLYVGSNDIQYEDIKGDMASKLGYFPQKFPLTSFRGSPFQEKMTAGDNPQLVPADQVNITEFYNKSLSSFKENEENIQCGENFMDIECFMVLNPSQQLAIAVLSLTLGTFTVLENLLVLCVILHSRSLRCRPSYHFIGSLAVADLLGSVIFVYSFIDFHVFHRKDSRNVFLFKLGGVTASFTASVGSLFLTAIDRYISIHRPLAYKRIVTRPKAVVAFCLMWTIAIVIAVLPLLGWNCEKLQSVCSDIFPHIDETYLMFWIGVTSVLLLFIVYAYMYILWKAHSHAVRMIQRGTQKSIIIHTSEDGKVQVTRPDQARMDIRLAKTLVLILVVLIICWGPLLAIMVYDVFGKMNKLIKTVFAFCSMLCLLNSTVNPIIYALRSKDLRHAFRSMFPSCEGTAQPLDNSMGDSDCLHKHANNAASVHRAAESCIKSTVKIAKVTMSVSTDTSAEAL
# Excerpt: as §1
# [10] = biological target: Transporter, Norepinephrine (NET) (Homo sapiens, UniProt P23975); experiment: Off-target screening; type: binding
# Transporter, Norepinephrine (NET), sequence (P23975 whole entry): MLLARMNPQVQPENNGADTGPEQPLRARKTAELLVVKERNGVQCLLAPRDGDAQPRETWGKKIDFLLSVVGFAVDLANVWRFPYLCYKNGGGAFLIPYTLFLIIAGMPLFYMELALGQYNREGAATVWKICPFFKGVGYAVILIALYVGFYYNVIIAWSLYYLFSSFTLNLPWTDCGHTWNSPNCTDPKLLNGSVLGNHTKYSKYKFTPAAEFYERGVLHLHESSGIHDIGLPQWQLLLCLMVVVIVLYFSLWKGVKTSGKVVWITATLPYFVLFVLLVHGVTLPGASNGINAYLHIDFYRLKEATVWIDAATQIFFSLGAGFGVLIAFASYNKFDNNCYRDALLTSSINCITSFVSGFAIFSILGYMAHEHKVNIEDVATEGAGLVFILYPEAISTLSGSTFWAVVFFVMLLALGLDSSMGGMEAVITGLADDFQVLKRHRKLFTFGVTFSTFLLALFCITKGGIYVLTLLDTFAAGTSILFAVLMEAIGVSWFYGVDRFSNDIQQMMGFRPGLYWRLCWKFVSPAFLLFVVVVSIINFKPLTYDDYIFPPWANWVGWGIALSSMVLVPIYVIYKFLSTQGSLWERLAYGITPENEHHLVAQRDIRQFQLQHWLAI
# Excerpt: as §1
# Opiate κ (OP2, KOP) = Opiate κ (OP2, KOP) (Homo sapiens, UniProt P41145); experiment: Off-target screening; type: binding
# Opiate κ (OP2, KOP), sequence (P41145 whole entry): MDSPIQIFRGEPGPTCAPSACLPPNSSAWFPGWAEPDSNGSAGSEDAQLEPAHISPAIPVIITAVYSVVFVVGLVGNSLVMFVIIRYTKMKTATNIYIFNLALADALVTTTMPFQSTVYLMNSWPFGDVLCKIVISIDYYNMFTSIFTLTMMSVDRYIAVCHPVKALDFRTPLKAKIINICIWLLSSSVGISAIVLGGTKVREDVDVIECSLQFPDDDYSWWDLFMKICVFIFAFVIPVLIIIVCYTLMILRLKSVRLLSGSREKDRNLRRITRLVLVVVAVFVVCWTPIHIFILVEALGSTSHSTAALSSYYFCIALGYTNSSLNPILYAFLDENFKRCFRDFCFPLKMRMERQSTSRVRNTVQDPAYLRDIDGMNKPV
# Excerpt: as §1
# Transporter, Adenosine = experiment: Off-target screening; type: binding
# Excerpt: as §1
# Progesterone, PR-B = Progesterone, PR-B (Homo sapiens, UniProt P06401); experiment: Off-target screening; type: binding
# Excerpt: as §1
# [11] = system: GABA A, chloride channel, TBOB; experiment: Off-target screening; type: binding
# Excerpt: as §1
# [12] = biological target: Transporter, Dopamine (DAT) (Homo sapiens, UniProt Q01959); experiment: Off-target screening; type: binding
# Excerpt: as §1
# Adrenergic α2A = biological target: T1, Adrenergic α2A (Homo sapiens, UniProt P08913); experiment: Off-target screening; type: binding; conditions: 10 μM
# T1 sequence (P08913 1-465): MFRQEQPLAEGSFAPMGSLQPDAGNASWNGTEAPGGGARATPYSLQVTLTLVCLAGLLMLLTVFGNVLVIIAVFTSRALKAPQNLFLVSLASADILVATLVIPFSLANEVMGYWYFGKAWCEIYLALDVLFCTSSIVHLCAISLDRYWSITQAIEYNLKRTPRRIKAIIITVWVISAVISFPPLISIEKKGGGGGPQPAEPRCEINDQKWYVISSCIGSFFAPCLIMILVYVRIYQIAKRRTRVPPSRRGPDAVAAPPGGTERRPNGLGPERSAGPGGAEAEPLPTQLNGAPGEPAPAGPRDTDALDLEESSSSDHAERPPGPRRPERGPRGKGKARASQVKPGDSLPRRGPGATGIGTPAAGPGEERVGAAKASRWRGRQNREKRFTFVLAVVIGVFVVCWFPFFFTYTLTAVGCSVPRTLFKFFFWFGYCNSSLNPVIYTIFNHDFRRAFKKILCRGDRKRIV
# Excerpt: as §1
# [13] = system: Calcium channel L-Type, benzothiazepine; experiment: Off-target screening; type: binding
# Excerpt: as §1
# [14] = system: Calcium channel L-Type, phenylalkylamine; experiment: Off-target screening; type: binding
# Excerpt: as §1
# Dopamine D2L = Dopamine D2L (Homo sapiens, UniProt P14416); experiment: Off-target screening; type: binding
# Dopamine D2L, sequence (P14416 whole entry): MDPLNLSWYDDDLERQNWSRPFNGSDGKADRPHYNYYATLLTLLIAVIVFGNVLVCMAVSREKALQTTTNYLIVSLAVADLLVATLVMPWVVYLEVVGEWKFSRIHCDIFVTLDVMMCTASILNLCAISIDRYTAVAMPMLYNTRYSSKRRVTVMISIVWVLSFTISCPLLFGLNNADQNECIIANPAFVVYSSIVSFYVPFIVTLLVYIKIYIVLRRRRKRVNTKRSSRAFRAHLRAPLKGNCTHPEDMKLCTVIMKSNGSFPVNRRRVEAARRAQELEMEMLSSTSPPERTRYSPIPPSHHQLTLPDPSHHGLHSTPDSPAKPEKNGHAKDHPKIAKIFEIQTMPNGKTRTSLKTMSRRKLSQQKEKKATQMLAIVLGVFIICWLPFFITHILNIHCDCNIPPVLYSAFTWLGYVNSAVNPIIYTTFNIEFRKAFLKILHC
# Excerpt: as §1
# Dopamine D2S = Dopamine D2S (Homo sapiens, UniProt P14416); experiment: Off-target screening; type: binding
# Excerpt: as §1
# Adrenergic α2B = Adrenergic α2B (Homo sapiens, UniProt P18089); experiment: Off-target screening; type: binding
# Excerpt: as §1
# Adrenergic α1A = experiment: Off-target screening; type: binding
# Excerpt: as §1
# Histamine H2 = Histamine H2 (Homo sapiens, UniProt P25021); experiment: Off-target screening; type: binding
# Excerpt: as §1
# Adrenergic α1B = experiment: Off-target screening; type: binding
# Excerpt: as §1
# Tachykinin NK1 = Tachykinin NK1 (Homo sapiens, UniProt P25103); experiment: Off-target screening; type: binding
# Tachykinin NK1, sequence (P25103 whole entry): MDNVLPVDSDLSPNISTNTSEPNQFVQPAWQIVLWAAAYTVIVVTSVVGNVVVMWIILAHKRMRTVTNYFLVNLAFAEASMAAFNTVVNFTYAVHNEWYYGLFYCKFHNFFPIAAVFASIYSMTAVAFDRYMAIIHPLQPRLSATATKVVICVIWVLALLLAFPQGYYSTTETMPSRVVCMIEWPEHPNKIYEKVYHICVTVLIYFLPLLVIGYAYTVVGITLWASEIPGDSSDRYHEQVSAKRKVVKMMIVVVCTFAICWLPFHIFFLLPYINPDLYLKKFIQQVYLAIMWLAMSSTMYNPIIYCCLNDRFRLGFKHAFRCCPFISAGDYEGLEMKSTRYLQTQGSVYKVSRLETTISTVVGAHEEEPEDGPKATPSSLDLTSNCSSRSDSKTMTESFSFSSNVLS
# Excerpt: as §1
# Sodium channel site 2 = experiment: Off-target screening; type: binding
# Excerpt: as §1
# Opiate μ (OP3, MOP) = Opiate μ (OP3, MOP) (Homo sapiens, UniProt P35372); experiment: Off-target screening; type: binding
# Excerpt: as §1
# Adrenergic α1D = Adrenergic α1D (Homo sapiens, UniProt P25100); experiment: Off-target screening; type: binding
# Excerpt: as §1
# [15] = Microglia, Table 6, unit inferred, footnote: Indicator of TL4 antagonism
# [16] = LPS (200 ng/ml), 24 h, BV-2 cells, Table 3
SMILES,half-life (in vitro [2]) [min],"IC50 [3, 15] [µM]","IC50 [3, 16] [µM]",half-life (in vitro [4]) [min],IC50 (hERG) [µM],half-life (in vitro [6]) [min],half-life (in vitro [7]) [min],half-life (in vitro [9]) [min],inhibition at 10 µM (Cannabinoid CB1) [%],inhibition at 10 µM [10] [%],"inhibition at 10 µM (Opiate κ (OP2, KOP)) [%]",other results
COc1ccc2c3c1O[C@@H]1C(F)CCC4[C@H](C2)N(S(C)(=O)=O)CC[C@]341 (some centres unmarked) [XT-209],22.4,> 10,> 10,15.3,> 10,89,296,39.4,–,–,–,"half-life [1]: 15.3 to 296 min; IC50 (iNOS): > 10 µM; IC50 (iNOS; read-out: iNOS enzyme, Table 6, unit inferred): > 10 µM; parent duration in human hepatocytes relative to XT-203 (Human hepatocytes): longer parent duration than XT-203; off-target hits in the screening [5]: one off-target hit; inhibition at 10 µM [8]: 61%"
COc1ccc2c3c1O[C@@H]1C(F)CCC4[C@H](C2)N(C(=O)C(C)(C)c2ccccc2)CC[C@]341 (some centres unmarked) [XT-216],20.8,> 10,> 10,11.3,> 10,17.1,31.5,10.6,82,59,69,"inhibition at 10 µM (Vasopressin V1A): 69%; inhibition at 10 µM (Adenosine A2A): 57%; % Inhibition at 10 μM, Transporter, Adenosine (Transporter, Adenosine): 60%; inhibition at 10 µM (Progesterone, PR-B): 50%; % Inhibition at 10 μM, GABA A, chloride channel, TBOB [11]: 54%; inhibition at 10 µM [12]: 52%"
COc1ccc2c3c1O[C@@H]1C(F)CCC4[C@H](C2)N(C(C)Cc2ccccc2)CC[C@]341 (some centres unmarked) [XT-215],20.7,> 10,> 10,12.7,–,19.6,65.6,22.1,57,61,79,"inhibition at 10 µM (Adrenergic α2A): 96%; % Inhibition at 10 μM, Calcium channel L-Type, benzothiazepine [13]: 51% and 73%; % Inhibition at 10 μM, Calcium channel L-Type phenylalkylamine [14]: 73% and 51%; inhibition at 10 µM (Dopamine D2L): 65%; inhibition at 10 µM (Dopamine D2S): 81%; inhibition at 10 µM (Adrenergic α2B): 105%; % Inhibition at 10 μM, Adrenergic α1A (Adrenergic α1A): 85% and 99%; inhibition at 10 µM (Histamine H2): 82%; % Inhibition at 10 μM, Adrenergic α1B (Adrenergic α1B): 99%; inhibition at 10 µM (Tachykinin NK1): 55%; % Inhibition at 10 μM, Sodium channel site 2 (Sodium channel site 2): 101%; inhibition at 10 µM (Opiate μ (OP3, MOP)): 79%; inhibition at 10 µM (Adrenergic α1D): 92%; IC50 (hERG; human): 10 µM; inhibition at 10 µM (hERG; human, read-out: hERG inhibition, percent): 51%"
